What all share (type): functional
The test system of assay [1] is Gerbillinae. The assay can be described thus: In vitro inhibitory activity against lipid peroxidation in gerbils.
The test system of assay [2] is Gerbillinae. In words: In vivo neuroprotective activity in gerbils (neuronal cell survival) before ischemic injury.
Assay [3] concerns Gerbillinae. In words: In vivo neuroprotective activity in gerbils (neuronal cell survival) after ischemic injury.

The source of these data is ChEMBL document CHEMBL1136096, “Design and biological evaluation of novel antioxidants containing N-t-Butyl-N-hydroxylaminophenyl moieties” (Bioorg Med Chem Lett, 2003).

Each structure is given as a SMILES string.

As for `CC(C)(C)N(O)c1ccc(C(=O)Nc2ccccn2)cc1`, the IC50 in the assay on Gerbillinae [1] amounted to 4.3 µM.
In the assay with Gerbillinae [1], `CC(C)(C)N(O)c1ccc(C(=O)NCc2ccccn2)cc1` registered an IC50 of 11.1 µM.
Consider `O=c1c2ccccc2[se]n1-c1ccccc1` [EBSELEN], for which the IC50 in the assay on Gerbillinae [1] came to 68.9 µM. In addition, the “Cell Survival” value in the assay with Gerbillinae [2] and in the assay with Gerbillinae [3] was 58% in each case.
For `CC(C)(C)N(O)c1ccc(C(=O)Nc2nccs2)cc1`, in the assay on Gerbillinae [1], 1.44 µM corresponded to half-maximal inhibition (IC50). For the same compound, the “Cell Survival” value in the assay on Gerbillinae [2] is on record as 57%; in the assay on Gerbillinae [3], 81%.
